In US12060360B2, “Lysyl oxidase inhibitors” (The Institute of Cancer Research: Royal Cancer Hospital, priority 2017, dated 2024):
pIC50: −log10 of the molar value. Like-named read-outs stand apart in the source and are kept apart here.

Target: T1, LOX (Mus musculus, UniProt P28301)
T1 construct: Full length LOX cDNA was then PCR cloned into pEGFP-N1 (Clonetech), or biosensor vector proGFP2-N1; expressed in transfected cells; host or cells: MDCK cells grown as cysts on Matrigel, G418-selected
T1 sequence (P28301 163-411): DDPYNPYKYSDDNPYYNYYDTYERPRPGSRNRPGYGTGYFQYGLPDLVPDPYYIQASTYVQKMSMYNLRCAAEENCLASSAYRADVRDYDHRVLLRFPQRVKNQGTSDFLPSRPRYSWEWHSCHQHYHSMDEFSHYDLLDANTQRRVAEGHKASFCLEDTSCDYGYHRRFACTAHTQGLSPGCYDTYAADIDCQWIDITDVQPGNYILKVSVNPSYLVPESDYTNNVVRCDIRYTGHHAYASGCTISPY
Assay: LOX activity in cysts assay (LOX-roGFP2 biosensor, MDCK cysts)
Assay type: cell-based
Conditions: for inhibition at 10 µM: read-out: LOX biosensor inhibition (cyst) @ 10 uM; for pIC50: roGFP2 ratio at basal surface, read-out: LOX biosensor IC50 (cyst); for inhibition at 2.5 µM: 2.5 uM (stated in cell), read-out: LOX biosensor inhibition (cyst) @ 2.5 uM
Description: LOX Activity in Cysts Assay (Tang et al, 2017).
All cell lines used in this study were purchased from American Type Culture Collection (ATCC). Mycoplasma contamination was routinely monitored by PCR. Cells used were not found to be Mycoplasma positive. MDCK cell lines were cultured in Dulbecco's Modified Eagle Medium (DMEM) supplemented with 10% fetal bovine serum (FBS) and 1% Penicillin Streptomycin solution (Pen Strep). For GFP constructs transfection in MDCK cells, lipofectamine 3000 was used according to manufactures protocols. Cells were either selected with G418 (Life Technologies) at 5 mg/ml. All cell culture reagents were purchased from Life Technologies.
To produce MDCK cysts, cells were cultured on Matrigel (Corning) with 2% Matrigel supplemented in DMEM with 10% FBS. Cysts were allowed to form for 10 days before subsequent studies.
Mouse LOX cDNA was purchased from OriGene. Full length LOX cDNA was then PCR cloned into pEGFP-N1 (Clonetech), or biosensor vector proGFP2-N1 (Hanson, 2004) using the following primers, […] (forward primer) and […] (reverse primer). For the insertion into pEGFP-N1 or proGFP2-N1, NheI and XhoI restriction sites were added to forward and reverse primers accordingly. Mutant LOX constructs were made using QuickChange II site-directed mutagenesis kit (Agilent Technologies) following manufacture's protocol using LOX-GFP as template. To generate, roGFP2 versions of LOX mutant constructs, LOX mutant cDNA was transferred from pEGFP-N1 to proGFP2-N1 using NheI and XhoI.
All photomicrographs were taken with a Leica TCS SP8 X confocal system. For LOX biosensor imaging, live MDCK cysts were used. The oxidised biosensor was excited using a 405 nm laser, while the reduced biosensor was excited with a 488 nm laser. Emission of the biosensor was recorded at 500 nm˜530 nm range using sequential scans. Ratio images were generated following a published protocol {Kardash, 2011 #376}. Note, while the published protocol generates YFP/CFP ratio images, we used it to generate Oxidised/Reduced (roGFP2 ratio) ratio images. The roGFP2 ratio at the basal surface of MDCK cysts was used to indicate LOX inhibition. LOX inhibitors were added 30 min prior to imaging.
For clarity, readout for DMSO treated cysts represents 0% inhibition (no inhibition) and readout for BAPN at 1 mM is used as 100% inhibition (full inhibition).

[1] = 10 uM, MDCK cysts, inhibitor added 30 min prior to imaging, DMSO = 0%, BAPN 1 mM = 100% inhibition
[2] = MDCK cysts, DMSO = 0%, BAPN 1 mM = 100% inhibition

In the case of CC1(C)C[C@@H]2CN(C(=O)NCCO)C[C@H]1N(c1ccc(N3CCC(F)(F)CC3)cc1)C2 [Example 30, (1S,5S)-6-(4-(4,4-difluoropiperidin-1-yl)phenyl)-N-(2-hydroxyethyl)-9,9-dimethyl-3,6-diazabicyclo[3.2.2]nonane-3-carboxamide], the inhibition at 10 µM [1] was 100% and the pIC50 (MDCK cysts) was 6.48.

Compound CC1(C)C[C@@H]2CN(C(=O)N3CCS(=O)(=O)CC3)C[C@H]1N(c1ccc3c(c1)OCCO3)C2 [Example 63, ((1 S,5S)-6-(2,3-dihydrobenzo[b][1,4]dioxin-6-yl)-9,9-dimethyl-3,6-diazabicyclo[3.2.2]nonan-3-yl)(1,1-dioxidothiomorpholino)methanone] has an inhibition at 10 µM [1] of 100%.

In the case of CCNC(=O)N1C[C@@H]2CN(c3ccc(F)cc3)[C@H](C1)C(C)(C)C2 [Example 2, (1 S,5S)—N-ethyl-6-(4-fluorophenyl)-9,9-dimethyl-3,6-diazabicyclo[3.2.2]nonane-3-carboxamide], the inhibition at 2.5 µM [2] was 92%.

For CCOc1ccc(N2C[C@H]3CN(C(=O)N(C)CCC#N)C[C@@H]2C(C)(C)C3)cc1 [Example 16, (1S,5S)-N-(2-cyanoethyl)-6-(4-ethoxyphenyl)-N,9,9-trimethyl-3,6-diazabicyclo[3.2.2]nonane-3-carboxamide], the inhibition at 10 µM [1] was 88%.

CCOc1ccc(N2C[C@H]3CN(C(=O)NNCCO)C[C@@H]2C(C)(C)C3)cc1 (stereo in doubt) [Example 29, 6-(4-ethoxyphenyl)-N′-(2-hydroxyethyl)-9,9-dimethyl-3,6-diazabicyclo[3.2.2]nonane-3-carbohydrazide] was tested, and the inhibition at 10 µM [1] was 100%.

In the case of CC1(C)C[C@@H]2CN(C(=O)NC3CCS(=O)(=O)CC3)C[C@H]1N(c1ccc(N3CCS(=O)(=O)CC3)cc1)C2 [Example 11, (1S,5S)-N-(1,1-dioxidotetrahydro-2H-thiopyran-4-yl)-6-(4-(1,1-dioxidothiomorpholino)phenyl)-9,9-dimethyl-3,6-diazabicyclo[3.2.2]nonane-3-carboxamide], the inhibition at 10 µM [1] was 100%.

CCOc1ccc(N2C[C@H]3CN(C(=O)N4CCC(N5CCCC5)CC4)C[C@@H]2C(C)(C)C3)cc1 [Example 18, ((1S,5S)-6-(4-ethoxyphenyl)-9,9-dimethyl-3,6-diazabicyclo[3.2.2]nonan-3-yl)(4-(pyrrolidin-1-yl)piperidin-1-yl)methanone] showed an inhibition at 10 µM [1] of 84%.

CCOc1ccc(N2C[C@@H]3CC(C)(C)[C@H]2CCN3C(=O)NCCO)cc1 [Example 20, (1S,5R)-6-(4-ethoxyphenyl)-N-(2-hydroxyethyl)-9,9-dimethyl-2,6-diazabicyclo[3.2.2]nonane-2-carboxamide] was tested, and the inhibition at 10 µM [1] was 79%.

With CCNC(=O)N1C[C@@H]2CN(c3ccc(OCCOC)cc3)[C@H](C1)C(C)(C)C2 [Example 3, (1S,5S)—N-ethyl-6-(4-(2-methoxyethoxy)phenyl)-9,9-dimethyl-3,6-diazabicyclo[3.2.2]nonane-3-carboxamide] the inhibition at 10 µM [1] was 88%.

CC1(C)C[C@@H]2CN(C(=O)NCCO)C[C@H]1N(c1ccc(C=O)cc1)C2 [Example 37, (1 S,5S)-6-(4-Formylphenyl)-N-(2-hydroxyethyl)-9,9-dimethyl-3,6-diazabicyclo[3.2.2]nonane-3-carboxamide] showed an inhibition at 10 µM [1] of 86%.

For CC1(C)C[C@@H]2CN(C(=O)N3CCS(=O)(=O)CC3)C[C@H]1N(c1cccc(N3CCS(=O)(=O)CC3)c1)C2 [Example 64, (1,1-dioxidothiomorpholino)((1S,5S)-6-(3-(1,1-dioxidothiomorpholino)phenyl)-9,9-dimethyl-3,6-diazabicyclo[3.2.2]nonan-3-yl)methanone], the inhibition at 10 µM [1] was 100%.

For CC1(C)C[C@@H]2CN(C(=O)NCCO)C[C@H]1N(c1ccc(SCCO)cc1)C2 [Example 34, (1S,5S)-N-(2-Hydroxyethyl)-6-(4-((2-hydroxyethyl)thio)phenyl)-9,9-dimethyl-3,6-diazabicyclo[3.2.2]nonane-3-carboxamide], the inhibition at 10 µM (MDCK) was 100%.

For CCOc1ccc(N2C[C@H]3CN(CCCC#N)C[C@@H]2C(C)(C)C3)cc1F [Example 45, 4-((1R,5S)-6-(4-Ethoxy-3-fluorophenyl)-9,9-dimethyl-3,6-diazabicyclo[3.2.2]nonan-3-yl)butanenitrile], the inhibition at 10 µM [1] was 42%.

CC1(C)C[C@@H]2CN(c3ccc(N4CCS(=O)(=O)CC4)cc3)[C@H]1CCN2C(=O)N1CCS(=O)(=O)CC1 [Example 9, (1,1-dioxidothiomorpholino)((1R,5S)-6-(4-(1,1-dioxidothiomorpholino)phenyl)-9,9-dimethyl-2,6-diazabicyclo[3.2.2]nonan-2-yl)methanone] showed an inhibition at 10 µM [1] of 100% and a pIC50 (MDCK cysts) of 6.16.

With CCOc1ccc(N2C[C@H]3CN(CC4(CC#N)CC4)C[C@@H]2C(C)(C)C3)cc1 [Example 43, 2-(1-(((1R,5S)-6-(4-ethoxyphenyl)-9,9-dimethyl-3,6-diazabicyclo[3.2.2]nonan-3-yl)methyl)cyclopropyl)acetonitrile] the inhibition at 10 µM [1] was 59%.

With C#CCCCN1C[C@@H]2CN(c3ccc(OCC)cc3)[C@H](C1)C(C)(C)C2 [Example 44, (1R,5S)-6-(4-ethoxyphenyl)-9,9-dimethyl-3-(pent-4-yn-1-yl)-3,6-diazabicyclo[3.2.2]nonane] the inhibition at 2.5 µM [2] was 66% and the pIC50 (MDCK cysts) was 6.51.

CCOc1ccc(N2C[C@H]3CN(C(=O)N4CC[C@H](O)C4)C[C@@H]2C(C)(C)C3)cc1 [Example 15, ((1S,5S)-6-(4-ethoxyphenyl)-9,9-dimethyl-3,6-diazabicyclo[3.2.2]nonan-3-yl)((S)-3-hydroxypyrrolidin-1-yl)methanone] was tested, and the inhibition at 10 µM [1] was 84%.

CCOc1ccc(N2C[C@H]3CC(C)(C)[C@@H]2CCN3C(=O)NCCO)cc1 [Example 22, (1R,5S)-6-(4-ethoxyphenyl)-N-(2-hydroxyethyl)-9,9-dimethyl-2,6-diazabicyclo[3.2.2]nonane-2-carboxamide] was tested, and the inhibition at 10 µM [1] was 100%.

CC1(C)C[C@@H]2CN(C(=O)N3CCN(S(C)(=O)=O)CC3)C[C@H]1N(c1ccc(N3CCS(=O)(=O)CC3)cc1)C2 [Example 61, ((1S,5S)-6-(4-(1,1-dioxidothiomorpholino)phenyl)-9,9-dimethyl-3,6-diazabicyclo[3.2.2]nonan-3-yl)(4-(methylsulfonyl)piperazin-1-yl)methanone] showed an inhibition at 10 µM [1] of 79%.

For CCOc1ccc(N2C[C@H]3CN(C4CCN(C)CC4)C[C@@H]2C(C)(C)C3)cc1 [Example 47, (1R,5S)-6-(4-ethoxyphenyl)-9,9-dimethyl-3-(1-methylpiperidin-4-yl)-3,6-diazabicyclo[3.2.2]nonane], the inhibition at 10 µM [1] was 90%.

In the case of CC1(C)C[C@@H]2CN(C(=O)N3CCS(=O)(=O)CC3)C[C@H]1N(c1ccc(N3CCN(S(C)(=O)=O)CC3)cc1)C2 [Example 31, ((1S,5S)-9,9-dimethyl-6-(4-(4-(methylsulfonyl)-1λ4-piperazin-1-yl)phenyl)-3,6-diazabicyclo[3.2.2]nonan-3-yl)(1,1-dioxidothiomorpholino)methanone], the inhibition at 10 µM [1] was 100% and the pIC50 (MDCK cysts) was greater than 6.74.

CCOc1ccc(N2C[C@H]3CN(c4ccc(NC(C)=O)cc4)C[C@@H]2C(C)(C)C3)cc1 [Example 58, N-(4-((1R,5S)-6-(4-ethoxyphenyl)-9,9-dimethyl-3,6-diazabicyclo[3.2.2]nonan-3-yl)phenyl)acetamide] was tested, and the inhibition at 10 µM [1] was 100%.

COc1cc(OC)cc(N2C[C@H]3CN(C(=O)N4CCS(=O)(=O)CC4)C[C@@H]2C(C)(C)C3)c1 [Example 65, ((1S,5S)-6-(3,5-dimethoxyphenyl)-9,9-dimethyl-3,6-diazabicyclo[3.2.2]nonan-3-yl)(1,1-dioxidothiomorpholino)methanone] gave an inhibition at 10 µM [1] of 88%.
